Assay results: patent US20220089575A1, “FARNESOID X RECEPTOR AGONISTS AND USES THEREOF” (Metacrine, Inc., priority 2017, published 2022)

biological target: T1, hFXR (Homo sapiens, UniProt Q96RI1); experiment: In Vitro FXR Assay (TK): TK-ECRE-luc reporter in transfected CV-1 cells; assay type: cell-based; settings: 18 hrs, luminescence, maximum efficacy of <25% of the Fexarmine control classified as '+'
T1 construct: expressed in transfected cells; host or cells: CV-1 cells
T1 sequence (Q96RI1 1-486): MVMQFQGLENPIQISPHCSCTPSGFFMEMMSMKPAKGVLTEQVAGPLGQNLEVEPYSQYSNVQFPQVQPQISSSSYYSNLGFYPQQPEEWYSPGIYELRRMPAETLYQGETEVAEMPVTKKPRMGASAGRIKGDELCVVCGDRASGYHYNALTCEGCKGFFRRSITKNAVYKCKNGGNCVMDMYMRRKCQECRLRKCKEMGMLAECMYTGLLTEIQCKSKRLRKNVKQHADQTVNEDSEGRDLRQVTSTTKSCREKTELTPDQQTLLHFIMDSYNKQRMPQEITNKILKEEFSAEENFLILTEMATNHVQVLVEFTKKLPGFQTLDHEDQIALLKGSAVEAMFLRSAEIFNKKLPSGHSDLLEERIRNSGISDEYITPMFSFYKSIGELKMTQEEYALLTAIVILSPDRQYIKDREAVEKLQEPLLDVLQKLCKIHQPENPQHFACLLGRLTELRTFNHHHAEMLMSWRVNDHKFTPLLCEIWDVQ
T1 sequence (P19793 1-462 partner): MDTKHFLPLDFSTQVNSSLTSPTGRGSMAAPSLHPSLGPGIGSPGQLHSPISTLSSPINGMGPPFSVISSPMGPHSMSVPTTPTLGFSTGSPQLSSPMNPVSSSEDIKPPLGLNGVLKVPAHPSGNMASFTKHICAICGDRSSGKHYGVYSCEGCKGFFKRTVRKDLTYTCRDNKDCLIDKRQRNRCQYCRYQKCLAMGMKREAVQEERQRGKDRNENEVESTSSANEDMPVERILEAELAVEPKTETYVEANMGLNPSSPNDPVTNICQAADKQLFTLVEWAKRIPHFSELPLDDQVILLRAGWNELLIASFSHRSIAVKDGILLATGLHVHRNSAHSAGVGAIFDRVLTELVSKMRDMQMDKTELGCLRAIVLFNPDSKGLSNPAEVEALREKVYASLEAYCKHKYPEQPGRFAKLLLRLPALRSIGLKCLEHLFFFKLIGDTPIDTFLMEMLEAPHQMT
In short: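 Reporter transactivation by hFXR was measured in CV-1 cells carrying hRXR and a TK-ECRE-luc construct, with compound treatment for 18 h before lysis and luminescence detection.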

EC50, ≤ 250 nM:
CNC(=O)O[C@H]1CC[C@H](C(=O)N(C[C@H]2CC[C@H](c3ccc(OC)c(C)c3)CC2)c2cccc(-c3ccc(C4CC4)nc3)c2)CC1 [Compound 5.37, trans-4-((3-(6-Cyclopropylpyridin-3-yl)phenyl)((trans-4-(4-methoxy-3-methylphenyl)cyclohexyl)methyl)carbamoyl)cyclohexyl methylcarbamate]
CNC(=O)O[C@H]1CC[C@H](C(=O)N(C[C@H]2CC[C@H](c3ccc(OC)c(C)c3)CC2)c2cccc(-c3cnc(N(C)C)nc3)c2)CC1 [Compound 5.38, trans-4-((3-(2-(Dimethylamino)pyrimidin-5-yl)phenyl)((trans-4-(4-methoxy-3-methylphenyl)cyclohexyl)methyl)carbamoyl)cyclohexyl methylcarbamate]
CNC(=O)O[C@H]1CC[C@H](C(=O)N(C[C@H]2CC[C@H](c3ccc(OC)c(C#N)c3)CC2)c2cc(-c3coc(C4CC4)n3)ccn2)CC1 [Compound 5.39, trans-4-(((trans-4-(3-Cyano-4-methoxyphenyl)cyclohexyl)methyl)(4-(2-cyclopropyloxazol-4-yl)pyridine-2-yl)carbamoyl)cyclohexyl methylcarbamate]
CNC(=O)O[C@H]1CC[C@H](C(=O)N(C[C@H]2CC[C@H](c3ccc(OC)c(C)c3)CC2)c2cc(-c3ccc(N(C)C)nc3)ccn2)CC1 [Compound 5.40, trans-4-((6-(Dimethylamino)-[3,4′-bipyridin]-2′-yl)((trans-4-(4-methoxy-3-methylphenyl)cyclohexyl)methyl)carbamoyl)cyclohexyl methylcarbamate]
CNC(=O)O[C@H]1CC[C@H](C(=O)N(C[C@H]2CC[C@H](c3ccc(OC)c(C)n3)CC2)c2cccc(-c3ccc(N(C)C)nc3)c2)CC1 [Compound 5.41, trans-4-((3-(6-((Dimethylamino)pyridine-3-yl)phenyl)((trans-4-(5-methoxy-6-methylpyridin-2-yl)cyclohexyl)methyl)carbamoyl)cyclohexyl methylcarbamate]
CNC(=O)O[C@H]1CC[C@H](C(=O)N(C[C@H]2CC[C@H](c3ccc(OC)c(C#N)n3)CC2)c2cccc(-c3coc(C4CC4)n3)c2)CC1 [Compound 5.42, trans-4-(((trans-4-(6-Cyano-5-methoxypyridin-2-yl)cyclohexyl)methyl)(3-(2-cyclopropyloxazol-4-yl)phenyl)carbamoyl)cyclohexyl methylcarbamate]
CNC(=O)O[C@H]1CC[C@H](C(=O)N(C[C@H]2CC[C@H](c3ccc(OC)c(C)n3)CC2)c2cc(-c3coc(C(C)C)n3)ccn2)CC1 [Compound 5.43, trans-4-((4-(2-Isopropyloxazol-4-yl)pyridine-2-yl)((trans-4-(5-methoxy-6-methylpyridin-2-yl)cyclohexyl)methyl)carbamoyl)cyclohexyl methylcarbamate]
CNC(=O)O[C@H]1CC[C@H](C(=O)N(C[C@H]2CC[C@H](c3ccc(OC)c(C#N)n3)CC2)c2cc(-c3coc(C4CC4)n3)ccn2)CC1 [Compound 5.44, trans-4-(((trans-4-(6-Cyano-5-methoxypyridin-2-yl)cyclohexyl)methyl)(4-(2-cyclopropyloxazol-4-yl)pyridine-2-yl)carbamoyl)cyclohexyl methylcarbamate]
CNC(=O)O[C@H]1CC[C@H](C(=O)N(C[C@H]2CC[C@H](c3ccc(OC)c(C#N)c3)CC2)c2cc(-c3coc(C(C)C)n3)ccn2)CC1 [Compound 5.45, trans-4-(((trans-4-(3-Cyano-4-methoxyphenyl)cyclohexyl)methyl)(4-(2-isopropyloxazol-4-yl)pyridine-2-yl)carbamoyl)cyclohexyl methylcarbamate]
CNC(=O)O[C@H]1CC[C@H](C(=O)N(C[C@H]2CC[C@H](c3ccc(OC)c(C#N)n3)CC2)c2cccc(-c3coc(C(C)C)n3)c2)CC1 [Compound 5.46, trans-4-(((trans-4-(6-Cyano-5-methoxypyridin-2-yl)cyclohexyl)methyl)(3-(2-isopropyloxazol-4-yl)phenyl)carbamoyl)cyclohexyl methylcarbamate]
CCNC(=O)O[C@H]1CC[C@H](C(=O)N(C[C@H]2CC[C@H](c3ccc(OC)c(C)n3)CC2)c2cc(-c3coc(C4CC4)n3)ccn2)CC1 [Compound 5.47, trans-4-((4-(2-Cyclopropyloxazol-4-yl)pyridine-2-yl)((trans-4-(5-methoxy-6-methylpyridin-2-yl)cyclohexyl)methyl)carbamoyl)cyclohexyl ethylcarbamate]
COc1ccc([C@H]2CC[C@H](CN(c3cc(-c4coc(C5CC5)n4)ccn3)C(=O)[C@H]3CC[C@H](OC(N)=O)CC3)CC2)nc1C [Compound 5.48, trans-4-((4-(2-Cyclopropyloxazol-4-yl)pyridine-2-yl)((trans-4-(5-methoxy-6-methylpyridin-2-yl)cyclohexyl)methyl)carbamoyl)cyclohexyl carbamate]
COC(=O)O[C@H]1CC[C@H](C(=O)N(C[C@H]2CC[C@H](c3ccc(OC)c(C)n3)CC2)c2cc(-c3coc(C4CC4)n3)ccn2)CC1 [Compound 5.49, trans-4-((4-(2-Cyclopropyloxazol-4-yl)pyridine-2-yl)((trans-4-(5-methoxy-6-methylpyridin-2-yl)cyclohexyl)methyl)carbamoyl)cyclohexyl methyl carbonate]
CNC(=O)O[C@H]1CC[C@H](C(=O)N(C[C@H]2CC[C@H](c3cnc(OC)c(C)c3)CC2)c2cc(-c3coc(C4CC4)n3)ccn2)CC1 [Compound 5.50, trans-4-((4-(2-Cyclopropyloxazol-4-yl)pyridine-2-yl)((trans-4-(6-methoxy-5-methylpyridin-3-yl)cyclohexyl)methyl)carbamoyl)cyclohexyl methylcarbamate]
CCc1nc(-c2ccnc(N(C[C@H]3CC[C@H](c4ccc(OC)c(C)n4)CC3)C(=O)[C@H]3CC[C@H](OC(=O)NC)CC3)c2)co1 [Compound 5.51, trans-4-((4-(2-Ethyloxazol-4-yl)pyridin-2-yl)((trans-4-(5-methoxy-6-methylpyridin-2-yl)cyclohexyl)methyl)carbamoyl)cyclohexyl methylcarbamate]
CNC(=O)O[C@]1(C)CC[C@@H](C(=O)N(C[C@H]2CC[C@H](c3ccc(OC)c(C)c3)CC2)c2cccc(-c3cnn(C(C)C)c3)c2)CC1 [Compound 5.52, trans-4-((3-(1-Isopropyl-1H-pyrazol-4-yl)phenyl)((trans-4-(4-methoxy-3-methylphenyl)cyclohexyl)methyl)carbamoyl)-1-methylcyclohexyl methylcarbamate]
CNC(=O)O[C@]1(C)CC[C@H](C(=O)N(C[C@H]2CC[C@H](c3ccc(OC)c(C)c3)CC2)c2cccc(-c3cnn(C(C)C)c3)c2)CC1 [Compound 5.53, cis-4-((3-(1-Isopropyl-1H-pyrazol-4-yl)phenyl)(trans-4-(4-methoxy-3-methylphenyl)cyclohexyl)methyl)carbamoyl)-1-methylcyclohexyl methylcarbamate]
COc1ccc([C@H]2CC[C@H](CN(c3cc(-c4coc(C(C)C)n4)ccn3)C(=O)[C@H]3CC[C@H](OC(=O)N4CCOCC4)CC3)CC2)nc1C [Compound 6, trans-4-((4-(2-Isopropyloxazol-4-yl)pyridine-2-yl)((trans-4-(5-methoxy-6-methylpyridin-2-yl)cyclohexyl)methyl)carbamoyl)cyclohexyl morpholine-4-carboxylate]
CN(C)c1ccc([C@H]2CC[C@H](CN(c3cccc(-c4cnc(C5CC5)s4)c3)C(=O)[C@H]3CC[C@H](OC(=O)NCCO)CC3)CC2)cn1 [Compound 6.01, 4-((3-(2-Cyclopropylthiazol-5-yl)phenyl) ((trans-4-(6-(dimethylamino)pyridin-3-yl)cyclohexyl)methyl)carbamoyl) cyclohexyl (2-hydroxyethyl)trans-carbamate]
COc1ccc([C@H]2CC[C@H](CN(c3cc(-c4cnc(C5CC5)s4)ccn3)C(=O)[C@H]3CC[C@H](OC(=O)NCCO)CC3)CC2)cc1C [Compound 6.02, trans-4-((4-(2-Cyclopropylthiazol-5-yl)pyridin-2-yl)((trans-4-(4-methoxy-3-methylphenyl)cyclohexyl)methyl)carbamoyl)cyclohexyl (2-hydroxyethyl) carbamate]
